Results on 1 molecule are retold here after BindingDB's records for doi:10.1021/acs.jmedchem.5b00570 (Academy of Sciences of The Czech Republic V.V.I., 2015).

Structures are written as SMILES.

Test [1] addresses Glutamate receptor ionotropic, NMDA 1/2A (Homo sapiens, UniProt Q12879+Q05586). Briefly: Inhibition of recombinant GluN1/GluN2A receptor (unknown origin) expressed in HEK293 cells assessed as inhibition of glutamate-evoked current by whole-cell voltage-clamp method.
The target in test [2] is Glutamate receptor ionotropic, NMDA 1/2B (Homo sapiens, UniProt Q05586+Q13224). Briefly: Inhibition of recombinant GluN1/GluN2B receptor (unknown origin) expressed in HEK293 cells assessed as inhibition of glutamate-evoked current by whole-cell voltage-clamp method.
Test [3] concerns the target Glutamate receptor ionotropic, NMDA 1/2C (Homo sapiens, UniProt Q05586+Q14957). Nature of the test: Inhibition of recombinant GluN1/GluN2C receptor (unknown origin) expressed in HEK293 cells assessed as inhibition of glutamate-evoked current by whole-cell voltage-clamp method.
In test [4] the target is Glutamate receptor ionotropic, NMDA 1/2D (Homo sapiens, UniProt Q05586+O15399). Nature of the test: Inhibition of recombinant GluN1/GluN2D receptor (unknown origin) expressed in HEK293 cells assessed as inhibition of glutamate-evoked current by whole-cell voltage-clamp method.
Sequence of Glutamate receptor ionotropic, NMDA 1/2D (O15399 whole entry, other chains not shown): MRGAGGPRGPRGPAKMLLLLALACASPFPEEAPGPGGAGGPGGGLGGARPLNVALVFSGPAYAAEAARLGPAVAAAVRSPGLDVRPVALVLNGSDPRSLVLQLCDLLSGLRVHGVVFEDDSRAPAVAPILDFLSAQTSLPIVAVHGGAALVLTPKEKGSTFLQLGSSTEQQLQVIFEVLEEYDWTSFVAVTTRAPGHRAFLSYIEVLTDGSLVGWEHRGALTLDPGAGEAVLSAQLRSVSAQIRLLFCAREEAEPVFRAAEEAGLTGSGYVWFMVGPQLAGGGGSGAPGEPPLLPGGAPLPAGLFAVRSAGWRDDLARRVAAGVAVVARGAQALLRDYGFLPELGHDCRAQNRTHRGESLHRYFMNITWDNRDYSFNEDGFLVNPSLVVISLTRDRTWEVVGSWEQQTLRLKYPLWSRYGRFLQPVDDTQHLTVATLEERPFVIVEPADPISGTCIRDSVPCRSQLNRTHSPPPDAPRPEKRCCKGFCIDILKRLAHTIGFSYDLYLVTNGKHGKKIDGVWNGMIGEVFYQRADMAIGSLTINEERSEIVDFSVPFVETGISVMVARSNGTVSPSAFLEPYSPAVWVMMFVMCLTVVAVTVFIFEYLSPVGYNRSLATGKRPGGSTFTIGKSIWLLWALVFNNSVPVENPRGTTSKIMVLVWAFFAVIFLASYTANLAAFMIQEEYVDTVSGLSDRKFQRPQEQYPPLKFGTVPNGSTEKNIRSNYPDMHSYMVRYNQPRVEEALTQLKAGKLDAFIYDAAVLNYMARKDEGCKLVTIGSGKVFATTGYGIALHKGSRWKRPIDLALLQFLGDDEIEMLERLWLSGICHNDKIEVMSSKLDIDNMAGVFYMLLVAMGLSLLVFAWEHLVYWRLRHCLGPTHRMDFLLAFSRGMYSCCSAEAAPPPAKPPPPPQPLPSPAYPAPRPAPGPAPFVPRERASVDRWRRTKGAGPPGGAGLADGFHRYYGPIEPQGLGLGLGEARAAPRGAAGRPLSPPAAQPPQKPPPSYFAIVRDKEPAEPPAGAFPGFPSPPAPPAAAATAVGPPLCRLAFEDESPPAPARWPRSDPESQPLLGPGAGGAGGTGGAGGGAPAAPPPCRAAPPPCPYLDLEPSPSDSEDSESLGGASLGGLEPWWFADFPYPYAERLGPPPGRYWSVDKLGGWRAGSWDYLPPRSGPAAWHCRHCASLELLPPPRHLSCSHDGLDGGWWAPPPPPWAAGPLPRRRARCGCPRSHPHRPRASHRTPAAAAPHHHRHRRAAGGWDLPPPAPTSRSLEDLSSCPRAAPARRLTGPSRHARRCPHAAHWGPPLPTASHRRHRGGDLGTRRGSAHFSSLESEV

Sequence of Glutamate receptor ionotropic, NMDA 1/2C (Q14957 whole entry, other chains not shown): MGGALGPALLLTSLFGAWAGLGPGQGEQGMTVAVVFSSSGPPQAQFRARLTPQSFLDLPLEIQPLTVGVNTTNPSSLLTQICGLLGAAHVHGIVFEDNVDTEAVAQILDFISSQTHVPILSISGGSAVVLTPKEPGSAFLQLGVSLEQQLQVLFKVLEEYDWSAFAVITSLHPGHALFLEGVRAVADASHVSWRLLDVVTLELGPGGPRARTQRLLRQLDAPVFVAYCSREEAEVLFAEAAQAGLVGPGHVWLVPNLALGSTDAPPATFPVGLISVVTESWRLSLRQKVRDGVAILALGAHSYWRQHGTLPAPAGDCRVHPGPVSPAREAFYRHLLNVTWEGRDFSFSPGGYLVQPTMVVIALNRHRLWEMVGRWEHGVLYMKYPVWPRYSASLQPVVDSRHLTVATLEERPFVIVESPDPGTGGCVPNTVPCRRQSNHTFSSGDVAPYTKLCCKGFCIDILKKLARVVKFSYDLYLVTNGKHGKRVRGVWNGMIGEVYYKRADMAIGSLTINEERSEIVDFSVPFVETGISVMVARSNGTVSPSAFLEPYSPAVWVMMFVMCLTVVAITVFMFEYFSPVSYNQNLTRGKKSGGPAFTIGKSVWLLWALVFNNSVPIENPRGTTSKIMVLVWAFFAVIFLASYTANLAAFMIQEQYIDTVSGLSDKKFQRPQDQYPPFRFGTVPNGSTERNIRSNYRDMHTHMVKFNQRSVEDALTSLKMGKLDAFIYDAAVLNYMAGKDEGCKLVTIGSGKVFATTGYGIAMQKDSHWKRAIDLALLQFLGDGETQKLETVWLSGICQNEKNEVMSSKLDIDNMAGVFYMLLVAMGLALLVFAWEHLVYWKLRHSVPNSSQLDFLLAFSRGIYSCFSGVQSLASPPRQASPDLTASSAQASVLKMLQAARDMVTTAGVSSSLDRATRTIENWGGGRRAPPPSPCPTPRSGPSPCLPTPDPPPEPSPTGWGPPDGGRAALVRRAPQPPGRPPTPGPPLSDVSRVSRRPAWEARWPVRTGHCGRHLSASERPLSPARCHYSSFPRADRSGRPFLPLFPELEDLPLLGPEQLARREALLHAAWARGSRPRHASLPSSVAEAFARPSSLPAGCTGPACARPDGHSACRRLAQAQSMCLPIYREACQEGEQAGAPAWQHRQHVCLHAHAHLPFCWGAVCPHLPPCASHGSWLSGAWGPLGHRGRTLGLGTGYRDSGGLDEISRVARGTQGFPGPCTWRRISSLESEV
Sequence of Glutamate receptor ionotropic, NMDA 1/2B (Q13224 whole entry, other chains not shown): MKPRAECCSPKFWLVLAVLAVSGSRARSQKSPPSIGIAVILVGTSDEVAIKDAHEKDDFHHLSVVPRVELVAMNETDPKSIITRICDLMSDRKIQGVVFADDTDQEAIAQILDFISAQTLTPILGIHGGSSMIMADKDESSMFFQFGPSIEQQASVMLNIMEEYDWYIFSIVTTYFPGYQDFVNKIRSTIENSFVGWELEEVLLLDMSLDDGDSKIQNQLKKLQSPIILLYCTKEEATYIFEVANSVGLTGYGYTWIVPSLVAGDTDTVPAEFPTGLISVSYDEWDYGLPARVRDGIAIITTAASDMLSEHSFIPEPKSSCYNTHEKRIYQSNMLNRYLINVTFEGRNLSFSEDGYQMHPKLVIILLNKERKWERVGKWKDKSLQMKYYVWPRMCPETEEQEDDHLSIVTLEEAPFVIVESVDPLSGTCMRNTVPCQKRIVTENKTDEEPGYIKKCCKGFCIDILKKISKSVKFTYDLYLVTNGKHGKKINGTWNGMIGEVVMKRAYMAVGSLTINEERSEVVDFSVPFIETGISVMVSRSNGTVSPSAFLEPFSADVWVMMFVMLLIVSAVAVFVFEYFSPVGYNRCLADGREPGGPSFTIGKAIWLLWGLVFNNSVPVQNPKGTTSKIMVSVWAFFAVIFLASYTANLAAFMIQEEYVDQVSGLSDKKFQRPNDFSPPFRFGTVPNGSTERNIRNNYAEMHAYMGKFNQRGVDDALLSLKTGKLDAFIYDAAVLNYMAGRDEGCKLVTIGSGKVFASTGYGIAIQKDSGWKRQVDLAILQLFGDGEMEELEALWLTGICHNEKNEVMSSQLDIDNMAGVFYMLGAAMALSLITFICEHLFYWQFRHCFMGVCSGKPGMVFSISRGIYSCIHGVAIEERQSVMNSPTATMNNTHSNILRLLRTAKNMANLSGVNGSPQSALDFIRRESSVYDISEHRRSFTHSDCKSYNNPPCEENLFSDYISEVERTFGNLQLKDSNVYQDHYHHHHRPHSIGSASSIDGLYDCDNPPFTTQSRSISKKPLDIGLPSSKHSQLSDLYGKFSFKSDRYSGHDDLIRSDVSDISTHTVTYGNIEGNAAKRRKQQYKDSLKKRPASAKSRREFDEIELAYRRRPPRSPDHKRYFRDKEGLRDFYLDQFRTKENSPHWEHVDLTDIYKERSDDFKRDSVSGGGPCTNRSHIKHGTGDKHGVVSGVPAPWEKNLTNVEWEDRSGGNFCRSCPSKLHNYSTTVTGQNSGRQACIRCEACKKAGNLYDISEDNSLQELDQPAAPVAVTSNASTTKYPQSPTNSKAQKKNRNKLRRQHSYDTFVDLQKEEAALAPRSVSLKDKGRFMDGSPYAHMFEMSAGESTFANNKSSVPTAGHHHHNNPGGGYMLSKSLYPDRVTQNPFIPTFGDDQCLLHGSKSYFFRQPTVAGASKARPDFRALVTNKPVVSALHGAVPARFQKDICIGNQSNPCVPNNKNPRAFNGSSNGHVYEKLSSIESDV

Turning to `C[C@H]1CC[C@H]2[C@@H]3CC[C@@H]4C[C@H](OS(=O)(=O)O)CC[C@]4(C)[C@H]3CC[C@]12C`, the concentration for half-maximal inhibition (IC50) in test [1] amounted to 600 nM; in test [2], 600 nM; in test [3], 400 nM; in test [4], 500 nM.

Usually IC50 stands for the concentration needed to halve the response being measured.
